Paper PMC4350332 (Oncotarget, 2014)
Like-named read-outs stand apart in the source and are kept apart here. Values belong to the compound of their own block, whether it stands above or below them.

Experiments:
[1] = system: PC-3 cells; assay: Metabolite analysis (L-lactate, D-glucose, pyruvate, L-alanine) in PC-3 cells; type: cell-based; details: for Reduction in media L-lactate levels: 1 h; for Intracellular pyruvate levels: 24 h
Protocol: Pyruvate, L-lactate, D-glucose and L-alanine levels were determined using commercially available assay kits (Abcam) as per the manufacturer's instructions.

[2] = system: panel of 97 kinases; assay: scanEDGE kinase selectivity screen (DiscoverX); type: binding; details: 10 μM
Description: A proprietary active site-directed competition binding assay was employed to quantitatively measure interactions between test compounds and the individual kinases on the panel. Results were expressed as a percentage of control binding, with 0% indicating complete binding of the test compound.

[3] = system: Jurkat cells; assay: 13C-NMR metabolite analysis in Jurkat cells; type: cell-based; details: 20 μM
Protocol: Jurkat cells (5 X 106) were pre-treated in RPMI-1640 media containing either DMSO or 20
μM VER-00246608 for 1 h. The cells were then pelleted and washed in PBS containing
DMSO/compound and re-suspended in glucose-free RPMI-1640 media containing 10% FCS
cell suspension was then transferred to a 5mm NMR tube and placed into the sample probe of
a Bruker DRX600 NMR spectrometer. The probe was pre-equilibrated to 37°C and shimmed
on a matched sample. Pulses were also calibrated on the matched sample. The sample
containing the Jurkat cells was rapidly shimmed and data acquisition initiated within 15
1D 13C NMR spectra (240ppm sweep width, 64k acquired points, 64 scans) were then
acquired at 10 minute intervals up to 2 h. The glucose and lactate peaks were converted to
concentrations by referencing to a cell-free reference sample containing the same
concentration of 1,6-13C-D-Glucose (11 mM).
D, Jurkat cells (5 X 106) were pre-treated in RPMI-
suspension in glucose-free RPMI-1640 media supplemented with 2 g/L 1,6-13C-D-Glucose followed by kinetic acquisition of 13C-NMR spectra at 10 min intervals. Representative curves from duplicate treatments are shown.

[4] = system: PC-3 spheroids; assay: Spheroid growth assay (3D culture); type: cell-based; details: concentrations of 10 μM and above
Protocol: (§1) Compound cytotoxicity was determined using the Sulforhodamine B assay for cells cultured as a monolayer as described previously (45). For spheroid growth experiments, PC-3 cells were seeded (500 cells/well) into 96 well round bottom plates (Corning Costar 7007) in RPMI-1640 media containing 2.5% (w/v) Matrigel (BD Biosciences). […] Spheroid volumes were determined by obtaining diameter measurements from images taken on a Zeiss Axiovert 200M inverted microscope using the axiovision software.

[5] = system: PC-3 cells; assay: Oxygen consumption (oxytherm oxygen electrode); type: cell-based
Protocol: Oxygen consumption was measured using an ‘oxytherm’ oxygen electrode system (Hansatech). PC-3 cells were trypsinized and re-suspended to a density of 1.7×10^6cells/mL in RPMI-1640 media containing 10% FCS. Compounds or DMSO were then added to 1.5 mL aliquots of this suspension to yield the required final concentration followed by a 1 h incubation period in a CO2incubator at 37°C. The compound/vehicle treated cells were then transferred to the oxygen electrode chamber (pre-equilibrated to 37°C). Oxygen consumption was measured over a 30 minute period and the rate of oxygen consumption determined by plotting oxygen concentration against time and obtaining the slope of the line using the linear fit function within excel.

[6] = system: hTert immortalized human foreskin fibroblast (HFF) cell line; assay: Glycolytic activity (L-lactate, D-glucose) in HFF cells; type: cell-based; details: 6 h, 0.25 g/L D-glucose, 2% dialyzed FCS; VER-246608 effect only at top concentration (27 μM)
Protocol: Pyruvate, L-lactate, D-glucose and L-alanine levels were determined using commercially available assay kits (Abcam) as per the manufacturer's instructions. […]
transformed and additional cancer cell lines. A, The indicated cell lines were seeded into […]
relevant media containing either 2 g/L D-glucose or D-galactose for 96 h. Cell mass was determined using the sulforhodamine B assay. Results are expressed as the percentage change vs DMSO control values for cells incubated in D-glucose containing media. B, HFF cells were seeded into 96 well plates at a density of 1x10^4 cells per well in 96 well plates. […]
and Nov3r (in DMEM media containing 0.25 g/L D-glucose and 2% dialyzed FCS) for 6 h, followed by the removal of cell culture media for analysis of L-lactate and D-glucose. At the end of the experiment the remaining media was aspirated and the cells transferred to a - 80 °C freezer for subsequent analysis of p(Ser293)E1α levels by MSD ELISA. C. K562 cells […]
analysis of pyruvate dehydrogenase (PDH) activity in cell lysates using a commercially available ELISA-based assay kit (Abcam). Results are expressed as a percentage of the PDH reaction rate in DMSO treated cells. D, Jurkat cells ([…]) were pre-treated in RPMI- […]
suspension in glucose-free RPMI-1640 media supplemented with 2 g/L 1,6-13C-D-Glucose followed by kinetic acquisition of 13C-NMR spectra at 10 min intervals. […]

[7] = system: PC-3 cells; assay: Cell cycle and sub-G1 analysis (PI/FACS); type: cell-based; details: PC-3, 20 μM, 48 h
Protocol: PC-3 cells were seeded into 6-well plates at a density of 1×10^5 cells per well. […] Following ethanol fixation and treatment with RNAse (Sigma), cellular DNA was stained with propidium iodide (50 μg/mL). The samples were then acquired on a FACSArray (BD Biosciences) flow cytometer and the data analyzed using FACSDiva software.

[8] = system: p(Ser^293)E1α levels in PC-3 cells; assay: Phospho(Ser293) E1α MSD ELISA in PC-3 cells; type: cell-based; details: for IC50: Homo sapiens, PD marker (ELISA); for Degree of suppression of p(Ser^293)E1α levels (plateau), reduction compared to DMSO control: MSD ELISA
Protocol: (§2) Phospho(Ser^293) E1α MSD ELISA assay: All reagents were purchased from Meso Scale Discovery (Maryland, USA) unless otherwise stated. Following compound treatment, cells were treated with lysis buffer (TBS pH 7.4, 1% Tween-20, 1 mM EGTA, 1 mM EDTA, 1 mM NaF, protease and phosphatase inhibitor cocktails (Roche)) on ice and the lysates added to standard bind 96 well MSD plates which were pre-loaded with custom phospho(Ser^293)E1α ‘capture’ antibody (2 μg/ml in TBST containing 3% (w/v) blocker A) (Genescript) and blocked with 3% (w/v) blocker A, followed by a 1 h incubation at RT. The wells were then washed 3X with TBST (0.05% tween 20) followed by the addition of 2 μg/ml E1α ‘detection’ antibody (2 μg/ml) (Abcam) and a further 1 h incubation at RT. The wells were again washed 3X with TBST followed by the addition of 1 μg/ml Goat anti-mouse Sulfotag antibody, and a further TBST wash prior to the addition of 2X read buffer T. The chemiluminescent signal was then measured on a MSD sector imager 2400.

[9] = system: PC-3 cells; assay: Sulforhodamine B cell mass assay, PC-3 cells; type: cell-based
Protocol: as §1

[10] = molecular target: PDK-1 (Homo sapiens, UniProt Q15118); assay: PDK-1 fluorescence polarization assay (fluorescein-labelled ATP site probe); type: binding; design: PDK-1: residues 30-436; made in house; host or cells: E. coli BL21; details: fluorescence polarization; mean of n determinations; read-out: PDK-1 FP, IC50
PDK-1, sequence (Q15118 30-436): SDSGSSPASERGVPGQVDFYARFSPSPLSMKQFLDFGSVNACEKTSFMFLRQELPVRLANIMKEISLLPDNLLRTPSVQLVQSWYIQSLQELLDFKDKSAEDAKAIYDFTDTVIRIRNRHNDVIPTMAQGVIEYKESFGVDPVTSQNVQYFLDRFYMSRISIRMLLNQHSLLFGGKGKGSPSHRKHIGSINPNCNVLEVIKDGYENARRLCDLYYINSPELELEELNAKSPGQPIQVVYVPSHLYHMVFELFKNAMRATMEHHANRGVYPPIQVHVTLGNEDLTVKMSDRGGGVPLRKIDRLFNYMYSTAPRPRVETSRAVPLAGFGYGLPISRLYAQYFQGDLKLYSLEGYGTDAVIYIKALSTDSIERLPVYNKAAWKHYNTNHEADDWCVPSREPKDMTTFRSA
Protocol: carbamoyl]-2-(6-hydroxy-3-oxo-3H-xanthen-9-yl)benzoic acid), which binds to the ATP site of PDK resulting in an increase in anisotropy.
The HSP-90ß FP assay was conducted as previously described.

[11] = system: p(Ser^293)E1α levels in ES-2 cells; assay: Phospho(Ser293) E1α suppression in ES-2 cells; type: cell-based
Protocol: as §2

SMILES: Cc1cnc(Cl)nc1-c1ccc(N(Cc2ccc(CNC(=O)C(F)F)cc2)C(=O)c2ccc(O)cc2O)cc1 [VER-246608]
Reduction in media L-lactate levels ([1]; PC-3, 9 μM, 0.25 g/L D-glucose, 2% dialyzed FCS): 21%
Intracellular pyruvate levels ([1]; PC-3, 20 μM, D-glucose/L-glutamine and serum depleted conditions): marked reduction
Intracellular pyruvate levels ([1]; PC-3, 20 μM, standard culture conditions): no change
Extracellular L-alanine levels ([1]; PC-3, 20 μM, standard and low serum culture conditions): further substantial decrease
Reduction in media L-lactate levels ([1]; PC-3, 27 μM, 0.25 g/L D-glucose, 2% dialyzed FCS): 42%
Extracellular L-lactate levels ([1]; PC-3, 24 h, 10 and 20 μM, D-glucose/L-glutamine-depleted media): further reduction
L-lactate production vs DMSO ([1]; PC-3, 24 h, normal or low serum media): not altered
Effect on D-glucose consumption ([1]; PC-3, same concentrations that reduced L-lactate production (9 and 27 μM)): decreased D-glucose consumption
Number of further kinases with ligand binding between 10 and 35% of control [2]: seven
Number of kinases with ligand binding reduced to ≤ 10% of control values [2]: one
Kinases on the panel with significant or partial binding ([2]; ligand binding reduced to ≤35% of control): 8%
Decrease in the rate of D-glucose consumption [3]: 23%
Decrease in the rate of L-lactate production [3]: 25%
Reduction in spheroid volume [4]: approximately 50%
Increase in the rate of oxygen consumption ([5]; 20 μM, 1 h pre-treatment): 66%
Effect on glycolytic activity in HFF cells [6]: decrease in extracellular L-lactate and D-glucose levels
Cell cycle distribution ([7]; serum-starved conditions): increased fraction of cells in the G1 phase
Apoptosis induction (sub-G1 fraction) ([7]; standard and serum-depleted conditions): No evidence of apoptosis induction
IC50 ([8]; PC-3, read-out: p(Ser^293)E1α (10% FCS), IC50, 10% FCS): 1450 nM
IC50 ([8]; PC-3 cells, 0% FCS, read-out: p(Ser^293)E1α (0% FCS), IC50): 266 nM
Reduction in p(Ser^293)E1α levels ([8]; PC-3, 10 and 20 μM, 24 h, D-glucose/L-glutamine-depleted media): > 70%
Degree of suppression of p(Ser^293)E1α levels (plateau), reduction compared to DMSO control ([8]; PC-3 cells): complete suppression
Effect on growth in serum-free media or 0.1% serum ([9]; PC-3, 20 μM, 120 h, 0% or 0.1% FCS): complete suppression of growth
Reduction in cell mass vs DMSO control ([9]; PC-3, 20 μM, 120 h, D-glucose depletion with 15 mg/L L-glutamine): 50%
Reduction in growth ([9]; PC-3, 20 μM, 120 h, serum depleted conditions (0.5% FCS)): 70%

IC50 [10]: 83 nM
SMILES: C[C@@H]1CN(C(=O)[C@](C)(O)C(F)(F)F)[C@@H](C)CN1C(=O)c1ccc(C#N)cc1 [Nov3r, reference compound]
Change in media L-lactate levels ([1]; PC-3, all concentrations tested, 0.25 g/L D-glucose, 2% dialyzed FCS): no change
Effect on oxygen consumption rate ([5]; concentrations ≥ 1μM (3 μM in Fig. 3B)): no discernible effect
Effect on glycolytic activity in HFF cells [6]: did not alter glycolytic activity
Degree of suppression of p(Ser^293)E1α levels (plateau), reduction compared to DMSO control ([8]; PC-3 cells): approximately 60%
Cytotoxicity/cytostasis-induction ([9]; any of the culture conditions, up to a top concentration of 80 μM): no evidence of cytotoxicity/cytostasis-induction
Sub-maximal suppression of p(Ser^293)E1α levels [11]: 80%
